# Experimental data taken from patent US20230012368A1 (Hoffmann-La Roche Inc., priority 2018, published 2023).
# Where a name gives a salt, the structure may show the parent alone.
# Tested on: Acinetobacter baumannii ATCC 17978
# Experiment: Antimicrobial susceptibility testing: 90% growth inhibitory concentration (IC90) determination
# Format: cell-based
# Conditions: 90% growth inhibitory concentration; Acinetobacter baumannii ATCC17978; Iso-Sensitest broth, OD 600 nm over 16h; read-out: ATCC17978 IC90
# Outline: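 Growth of the Acinetobacter baumannii strain was followed by optical density at 600 nm every 20 minutes for 16h at 35±2° C. Inoculum was ~5×10^(5) CFU/ml in Iso-Sensitest medium, with twofold compound dilutions (e.g. 50 to 0.097 μM final). The 90% inhibitory concentration was derived in log-phase growth.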
row,SMILES,IC90 [nM]
1,"COc1ccc(-c2cnc3c(Nc4ccc(C(=O)NCC5CCOCC5)c(Cl)c4)nccn23)c(F)c1F [Example 40, 2-chloro-4-[[3-(2,3-difluoro-4-methoxy-phenyl)imidazo[1,2-a]pyrazin-8-yl]amino]-N-(tetrahydropyran-4-ylmethyl)benzamide; 2,2,2-trifluoroacetic acid]",180
2,"CCc1cc(Nc2nccn3c(-c4ccc(OC)c(F)c4F)cnc23)ccc1C(=O)N[C@@H](CN)C(=O)OC [Example 308, methyl (2S)-3-amino-2-[[4-[[3-(2,3-difluoro-4-methoxyphenyl)imidazo[1,2-a]pyrazin-8-yl]amino]-2-ethylbenzoyl]amino]propanoate; hydrochloride]",660
3,"Cc1cc(Nc2nccn3c(-c4ccc(OC(F)F)c(F)c4)cnc23)ccc1C(=O)N(C)CCC1CCNCC1 [Example 89, 4-((3-(4-(difluoromethoxy)-3-fluorophenyl)imidazo [1,2-a]pyrazin-8-yl)amino)-N,2-dimethyl-N-(2-(piperidin-4-yl)ethyl)benzamide hydrochloride]",230

# Same assay, conditions: Acinetobacter baumannii, ATCC17978, 16 h, 90% growth inhibitory concentration; Acinetobacter baumannii ATCC17978; Iso-Sensitest broth, OD 600 nm over 16h; read-out: ATCC17978 IC90
row,SMILES,IC90 [nM]
1,"CCc1cc(Nc2nccn3c(-c4ccc(Oc5ccccn5)c(F)c4F)cnc23)ccc1C(=O)NCCCC(=O)N1CCN[C@H](CO)C1 [Example 476, 4-[[3-[2,3-difluoro-4-(2-pyridyloxy)phenyl]imidazo [1,2-a]pyrazin-8-yl]amino]-2-ethyl-N-[4-[(3S)-3-(hydroxymethyl)piperazin-1-yl]-4-oxo-butyl]benzamide]",360
2,"COc1ccc(-c2cnc3c(Nc4ccc(C(=O)NCCCN)c(C)c4F)nccn23)c(F)c1F [Example 479, N-(3-aminopropyl)-4-((3-(2,3-difluoro-4-methoxyphenyl)imidazo[1,2-a]pyrazin-8-yl)amino)-3-fluoro-2-methylbenzamide]",490
3,"CCc1cc(Nc2nccn3c(-c4ccc(OC)c(F)c4F)cnc23)ccc1C(=O)NCC(C)(C)N [Example 524, N-(2-amino-2-methylpropyl)-4-((3-(2,3-difluoro-4-methoxyphenyl)imidazo[1,2-a]pyrazin-8-yl)amino)-2-ethylbenzamide hydrochloride]",600
4,"CCc1cc(Nc2nccn3c(-c4ccc(Oc5ccc(OC)cn5)c(F)c4F)cnc23)ccc1C(=O)NCCNC(=O)[C@H](N)CCNC(=N)N [Example 450, N-[2-[[(2R)-2-amino-4-guanidino-butanoyl]amino]ethyl]-4-[[3-[2,3-difluoro-4-[(5-methoxy-2-pyridyl)oxy]phenyl]imidazo [1,2-a]pyrazin-8-yl]amino]-2-ethyl-benzamide]",560
5,"N#CCOc1ccc(-c2cnc3c(Nc4ccc(C(=O)NCCc5ccncc5)c(Cl)c4)nccn23)c(F)c1Cl [Example 80, 2-chloro-4-[[3-[3-chloro-4-(cyanomethoxy)-2-fluoro-phenyl]imidazo[1,2-a]pyrazin-8-yl]amino]-N-[2-(4-pyridyl)ethyl] benzamide]",270
6,"CCc1cc(Nc2nccn3c(-c4ccc(OC)c(F)c4F)cnc23)ccc1C(=O)NCCNC(=O)[C@@H](N)CO [Example 373, N-[2-[[(2S)-2-amino-3-hydroxypropanoyl]amino]eth-yl]-4-[[3-(2,3-difluoro-4-methoxyphenyl)imidazo[1,2-a]pyrazin-8-yl]amino]-2-ethylbenzamide]",150
7,"CCc1cc(Nc2nccn3c(-c4ccc(OC)c(F)c4F)cnc23)ccc1C(=O)N[C@H](C)CNC(=N)C(C)C [Example 502, 4-[[3-(2,3-difluoro-4-methoxyphenyl)imidazo[1,2-a]pyrazin-8-yl]amino]-2-ethyl-#N!-[(2#R!)-1-(2-methylpropanimidoylamino)propan-2-yl]benzamide]",150
8,"CCc1cc(Nc2nccn3c(-c4ccc(OC)c(F)c4F)cnc23)ccc1C(=O)NCC(O)CNC(=O)CCCN (centres unmarked) [Example 410, N-(3-(4-aminobutanamido)-2-hydroxypropyl)-4-((3-(2,3-difluoro-4-methoxyphenyl)imidazo[1,2-a]pyrazin-8-yl)amino)-2-ethylbenzamide hydrochloride]",210
9,"CCc1cc(Nc2nccn3c(-c4ccc(OC)c(F)c4F)cnc23)ccc1C(=O)NCC(O)CNC(=O)[C@@H](N)CCCCN (mixture of isomers) [Example 412, rac-N-(3-((R)-2,6-diaminohexanamido)-2-hydroxypropyl)-4-((3-(2,3-difluoro-4-methoxyphenyl)imidazo[1,2-a]pyrazin-8-yl)amino)-2-ethylbenzamide dihydrochloride]",770
10,"CCc1cc(Nc2nccn3c(-c4ccc(OC)c(F)c4F)cnc23)ccc1C(=O)NCC(C)CNC(=O)[C@@H](N)CNC(=N)N (mixture of isomers) [Example 408, rac-N-(3-((R)-2-amino-3-guanidinopropanamido)-2-methylpropyl)-4-((3-(2,3-difluoro-4-methoxyphenyl)imidazo[1,2-a]pyrazin-8-yl)amino)-2-ethylbenzamide diformate]",410
11,"COc1ccc(-c2cnc3c(Nc4ccc(C(=O)NCCN5CCNCC5)c(C)c4)nccn23)c(F)c1F [Example 377, 4-[[3-(2,3-difluoro-4-methoxyphenyl)imidazo[1,2-a]pyrazin-8-yl]amino]-2-methyl-N-(2-piperazin-1-ylethyl)benzamide]",180

# The remaining lines, values ahead:
row,IC90 [nM],SMILES
1,130,"CN(CCC1CCNCC1)C(=O)c1ccc(Nc2nccn3c(-c4ccc(OCC#N)c(F)c4F)cnc23)cc1Cl [Example 78, 2-chloro-4-[[3-[4-(cyanomethoxy)-2,3-difluoro-phenyl]imidazo[1,2-a]pyrazin-8-yl]amino]-N-methyl-N-[2-(4-piperidyl)ethyl] benzamide; 2,2,2-trifluoroacetic acid]"
2,1100,"CCc1cc(Nc2nccn3c(-c4ccc(OC(F)F)cc4)cnc23)ccc1C(=O)N(C)CCN1CCNCC1 [Example 224, 4-[[3-[4-(difluoromethoxy)phenyl]im-idazo[1,2-a]pyrazin-8-yl]amino]-2-ethyl-N-methyl-N-(2-piperazin-1-ylethyl)benzamide;hydrochlo-ride]"
3,150,"CC[C@@]1(O)CN[C@H](C(=O)NCCNC(=O)c2ccc(Nc3nccn4c(-c5ccc(OC)c(F)c5F)cnc34)cc2C)C1 [Example 371, (2S,4S)-N-[2-[[4-[[3-(2,3-difluoro-4-methoxyphenyl)imidazo[1,2-a]pyrazin-8-yl]amino]-2-methylbenzoyl]amino]ethyl]-4-ethyl-4-hydroxypyrrolidine-2-carboxamide]"
4,210,"COc1ccc(-c2cnc3c(Nc4ccc(C(=O)N(C)CCC(=O)N5CCNCC5)c(C)c4)nccn23)cc1F [Example 3, 4-[[3-(3-fluoro-4-methoxy-phenyl)imidazo[1,2-a]pyrazin-8-yl]amino]-N,2-dimethyl-N-(3-oxo-3-piperazin-1-yl-propyl)benzamide]"
5,580,"Cc1cc(Nc2nccn3c(-c4ccc(OC(F)F)cc4)cnc23)ccc1C(=O)N(C)CCCCN1CCOCC1 [Example 208, 4-[[3-[4-(difluoromethoxy)phenyl]im-idazo[1,2-a]pyrazin-8-yl]amino]-N,2-dimethyl-N-(4-morpholin-4-ylbutyl)benzamide]"
6,650,"COc1ccc(-c2cnc3c(Nc4ccc(C(=O)NCC(=O)N5CCC(O)CC5)c(C)c4)nccn23)cc1 [Example 20, N-(2-(4-hydroxypiperidin-1-yl)-2-oxoethyl)-4-((3-(4-methoxyphenyl)imidazo [1,2-a]pyrazin-8-yl)amino)-2-methylbenzamide]"
